Assay results as given in patent US12509714B2, “Multiple heteroresistance to guide combination antibiotic regimens” (priority 2018, dated 2025).
Entries after “also recorded” stand apart in the source; their conditions may differ. Where two headings read alike, the source gives them in different places.

Experiments:
[1] = tested on: pan-resistant Klebsiella pneumoniae isolate Nevada-2016; assay type: cell-based
Experimental: (§1) Population analysis profile. Population analysis profiles (PAPs) were conducted. Briefly, solid agar plates were made for each antibiotic at 7 concentrations containing 0, 0.125, 0.25, 0.5, 1, 2 and 4 times the breakpoint, using Mueller Hinton agar. Breakpoint concentrations for Enterobacteriaceae from CLSI (amikacin 64 ug/mL, gentamicin 16 ug/mL, tobramycin 16 ug/mL, ampicillin 32 ug/mL, aztreonam 16 ug/mL, cefazolin 32 ug/mL, cefepime 16 ug/mL, ceftazidime 16 ug/mL, meropenem 4 ug/mL, piperacillin/tazobactam 128/4 ug/mL, ciprofloxacin 1 ug/mL, fosfomycin 256 ug/mL (breakpoint for UPEC; 25 mg/L glucose-6-phosphate added to the media), tetracycline 16 ug/mL, trimethoprim/sulfamethoxazole 4/76 ug/mL), FDA (tigecycline 8 ug/mL), or EUCAST (colistin 4 ug/mL) were used. Dual PAPs were made similarly, with both drugs in each plate at the same multiple of their respective breakpoint (0, 0.125, 0.25, 0.5, 1, 2, 4 times the breakpoint). Isolates to be tested were grown up overnight in Mueller Hinton broth from a single colony isolated from a frozen stock. Serial microdilutions were plated at each concentration of antibiotic. Colonies were enumerated after overnight growth at 37° C. An isolate was classified as resistant if the number of colonies that grew at the breakpoint concentration were at least 50% of those that grew on antibiotic free plates. If an isolate was not resistant, it was classified as heteroresistant if the number of colonies that grew at 2 or 4 times the breakpoint were at least 0.0001% (1 in 10^6) of those that grew on antibiotic free plates. If isolates were neither classified as resistant or heteroresistant, they were classified as susceptible.

[2] = tested on: pan-resistant Klebsiella pneumoniae isolate AR0040; assay type: cell-based; conditions: amikacin 64 μg/mL; piperacillin 256 μg/mL tazobactam 4 μg/mL
Experimental: (§2) Time kills. Time kills were conducted. Briefly, 10^6 CFU/mL bacteria from an overnight culture were inoculated into 2 mL MH media in culture tubes (Globe Scientific) with and without antibiotic(s). The following concentrations were used: colistin 16 μg/mL, ceftazidime 128 μg/mL, fosfomycin 256 μg/mL (+25 mg/L Glucose-6-Phosphate (G6P)), ampicillin 128 μg/mL (FIG. 1e-h and Supplementary FIG. 2), fosfomycin 256 μg/mL (+25 mg/L G6P), trimethoprim 4 μg/mL sulfamethoxazole 76 μg/mL, amikacin 64 μg/mL, and piperacillin 256 μg/mL tazobactam 4 μg/mL (FIGS. 5C, D, G, H). Cultures were incubated at 37° C. shaking at 250 RPM for 1-48 hours. CFU were determined by serial diluting bacteria in PBS prior to plating on MH agar plates at various timepoints in the assay (0, 1, 2, 4, 6, 8, 10, 24, and 48 hour timepoints were used for time-kills). In FIG. 1E-H, serially diluted bacteria were also plated on MH agar plates with antibiotic added (colistin 16 μg/mL, ceftazidime128 μg/mL, fosfomycin 256 μg/mL(+25 mg/L G6P), and ampicillin 128 μg/mL). In FIGS. 5D, H culture tubes were imaged with a Canon EOS Rebel T3i.

[3] = tested on: Enterobacter cloacae isolate Mu208; assay type: cell-based; conditions: for resistance status of Mu208 by PAP: Mueller Hinton agar, 0-4 times the breakpoint
Experimental: as §1

[4] = tested on: Enterobacter cloacae isolate Mu208; assay type: cell-based; conditions: for initial reduction in bacterial levels: ceftazidime 128, ampicillin 128 μg/mL
Experimental: as §2

[5] = tested on: Enterobacter cloacae isolate Mu208; assay: Frequency of resistant subpopulations of Mu208 on antibiotic treatment and after subculture without antibiotic; assay type: cell-based; conditions: for frequency of the respective resistant subpopulation on treatment: in the presence of the antibiotic; for frequency of resistant subpopulation upon subculture in the absence of antibiotic: antibiotic-free subculture
[6] = tested on: carbapenem-resistant Enterobacteriaceae (CRE) clinical isolates; assay: PAP screen of 104 CRE clinical isolates for heteroresistance to 16 antibiotics; assay type: cell-based; conditions: 104 CRE isolates
Experimental: as §1, with “If an isolate was not resistant, it was classified as heteroresistant if the number of colonies that grew at 2 or 4 times the breakpoint were at least 0.0001% (1 in 10^6) of those that grew on antibiotic free plates. If isolates were neither classified as resistant or heteroresistant, they were classified as susceptible.” left out

[7] = tested on: Mu1176; assay: Control isolate Mu1176, resistance designation; assay type: cell-based
Description: (§3) Bacterial isolates. Enterobacter cloacae isolate Mu208 was isolated from a urine sample at an Atlanta area hospital. […] Carbapenem-resistant Enterobacteriaceae (CRE) were collected between 2013 and 2015 by the Georgia EIP MuGSI. The CDC for provided pan-resistant Klebsiella pneumoniae isolates AR0040 and Nevada-2016.

[8] = tested on: Mu661; assay: Control isolate Mu661, resistance designation; assay type: cell-based
Description: as §3

[9] = tested on: Mu712
Description: as §3

[10] = tested on: pan-resistant Klebsiella pneumoniae isolate Nevada-2016; assay type: cell-based; conditions: breakpoint concentration
Experimental: as §2

[11] = tested on: Mu819; assay: Susceptible control isolate Mu819 (designation, PAP, time kill); assay type: cell-based
Experimental: as §3, §1
as §2, with “Cultures were incubated at 37° C. shaking at 250 RPM for 1-48 hours.” left out, “In FIG. 1E-H, serially diluted bacteria were also plated on MH agar plates with antibiotic added (colistin 16 μg/mL, ceftazidime128 μg/mL, fosfomycin 256 μg/mL(+25 mg/L G6P), and ampicillin 128 μg/mL). In FIGS. 5D, H culture tubes were imaged with a Canon EOS Rebel T3i.” left out

[12] = tested on: Mu208 ΔphoQ; assay: Resistant subpopulations in the Mu208 phoQ deletion mutant; assay type: cell-based, Enterobacter cloacae; conditions: compared with parental Mu208
Description: Colistin heteroresistance in Enterobacter requires the two-component system histidine kinase PhoQ which we deleted from Mu208 to test whether colistin heteroresistance was linked to ceftazidime or fosfomycin heteroresistance.
Cloning and mutagenesis. Mu208 ΔphoQ was generated by lambda red recombination. Briefly, a kanamycin cassette flanked by FRT sites with homology to the regions directly upstream and downstream, respectively, of the phoQ open reading frame (ORF) was inserted into the phoQ ORF in Mu208 with pKD46-tet, prior to it being removed with a flp recombinase encoded on the temperature sensitive plasmid, PCP20.

[13] = colistin 16, ceftazidime 128, fosfomycin 256 μg/mL

Molecule | resistance status of Mu208 by PAP [3] | initial reduction in bacterial levels ([4]; single antibiotic) | frequency of the respective resistant subpopulation on treatment [5] | proportion of the isolates exhibiting heteroresistance [6] [%] | resistance designation of control isolate Mu1176 [7] | activity in combination with ampicillin [3] | activity in combination with ampicillin [4] | frequency of resistant subpopulation upon subculture in the absence of antibiotic [5] | concentration at which the resistant subpopulation survived ([3]; PAP) [fold the breakpoint] | behaviour of resistant subpopulation / outgrowth in the presence of the single antibiotic [4, 13] | resistance designation of control isolate Mu819 [11] | other results
NCC[C@H](O)C(=O)N[C@@H]1C[C@H](N)[C@@H](O[C@H]2O[C@H](CN)[C@@H](O)[C@H](O)[C@H]2O)[C@H](O)[C@H]1O[C@H]1O[C@H](CO)[C@@H](O)[C@H](N)[C@H]1O [amikacin] |  |  |  |  |  |  |  |  |  |  |  | resistance status of Nevada-2016 by PAP [1]: homogenous resistance; initial killing of AR0040 by single drug [2]: significant initial killing
CC1(C)S[C@@H]2[C@H](NC(=O)[C@H](N)c3ccccc3)C(=O)N2[C@H]1C(=O)O [ampicillin] | homogenous resistance | did not lead to the initial reduction in bacterial levels | constant | 1.0 | resistant |  |  |  |  |  |  | killing of cells in PAP ([3]; any of the concentrations tested): lack of significant killing; resistance designation of control isolate Mu661 [8]: susceptible
CC(C)(O/N=C(\C(=O)N[C@@H]1C(=O)N2C(C(=O)[O-])=C(C[n+]3ccccc3)CS[C@H]12)c1csc(N)n1)C(=O)O [ceftazidime] | heteroresistance | killing was delayed | robust increase |  | resistant | not enhanced | not enhanced | returned to the baseline levels |  |  |  | concentration at which the resistant subpopulation survived [3]: 4 fold the breakpoint; behaviour of resistant subpopulation / outgrowth in the presence of the single antibiotic [4]: rapidly increased in number; also recorded: unable to prevent subsequent outgrowth; resistance designation of control isolate Mu712 [9]: susceptible
C[C@@H]1O[C@@H]1P(=O)(O)O [fosfomycin] | heteroresistance |  | robust increase | 72.1 | resistant | not enhanced | not enhanced | returned to the baseline levels | 4 | rapidly increased in number; also recorded: unable to prevent subsequent outgrowth | susceptible | killing of Nevada-2016 by single antibiotic [10]: killing of a significant proportion of the bacteria
colistin | heteroresistance |  | robust increase |  | resistant |  |  | returned to the baseline levels | 4 | expanded exponentially | susceptible | MIC of resistant subpopulation relative to the susceptible cells in the population ([3]; PAP): at least 32 fold; Mu208 cells killed by a concentration below the clinical breakpoint ([3]; PAP): Roughly 4 logs; activity in combination with ampicillin ([3]; dual PAP with ampicillin): not enhanced; behaviour of resistant subpopulation / outgrowth in the presence of the single antibiotic ([4]; colistin 16, ceftazidime 128, fosfomycin 256 μg/mL, listed as Colistin): unable to prevent subsequent outgrowth; time within which the susceptible cells were killed ([4]; single antibiotic, colistin 16 μg/mL): one; activity in combination with ampicillin ([4]; time-kill with ampicillin): not enhanced; resistant subpopulation in the phoQ mutant [12]: absent; killing of representative susceptible isolate in PAP ([11]; concentration below the breakpoint, isolate not named at b160, Mu819): all the cells of a representative susceptible isolate were killed; outcome of treatment of a susceptible strain in time kill ([11]; strain not named at b162, Mu819): eradicated
